“And” between values parts separate entries of the source, which are not always exact repeats. Identical values can stand only once.
Tests used:
naive mice = assay: Male fertility test; format: in vivo, mouse; parameters: Male fertility test, individual values (Fig 6E) / male fertility test, BB value (Fig S8C) / male fertility test, AB value (Fig S8C): unit not given here
From the text: Mice were 10 weeks old at the beginning of the experiment and acclimatized to the animal facility for two weeks after arrival. Male mice were randomized into two groups (n = 8/group) and weighed and injected s.c. once daily (between 3 pm and 4 pm) for 14 days with sterile PBS or 10 μmol/kg mPD5 (diluted in sterile PBS and pH adjusted to 7.4). After 14 days of dosing, the males were paired with female mice in fresh cages, and the number of pubs counted for 35 days (males were removed from the breeding cages after 14 days). Following the 14 days mating period, males were sacrificed by cervical dislocation caudae epidymidis were removed and weighed. Caudae epidymidis were cut into smaller pieces in 2 mL PBS (37 °C) and incubated (37 °C, 5% CO2) for 15 min. Following incubation, the mix was swirled gently, and 0.5 mL of the liquid was transferred to room tempered PBS to achieve a final volume of 1 mL.
Subsequently, sperm count was determined by transferring 50 µL of the sample to a hemocytometer, and each sample was determined in duplicate by an experimenter blinded to drug treatment. Following criteria were assessed: mobility (forward and circular), local tail mobility and total number. Females were weighed on a regular basis from removal of the males […]
Unless otherwise stated, all data were analysed using GraphPad Prism 9.4.1. and presented as mean +-SEM with the significance level set to p < 0.05. For locomotion and elevated plus maze, Ethovision XT 13 (Noldus) was used to track the distance travelled by each animal. For within group analysis (i.e., von Frey experiments), two-way ANOVA followed by Dunnett’s post hoc test was used. For between group analysis of multiple time points (i.e., locomotion experiments), two-way ANOVA was used without post hoc test due to lack of treatment significance in the ANOVA test. For the limb use experiment, data pre versus post treatment was analysed with a Kruskal Wallis test due to the non-parametric nature of the data. When analysing histograms of three groups or more (i.e., marble burying and elevated plus maze),

[1] = test system: mice, CFA model of inflammatory pain; assay: CFA model, Hargreaves test (thermally evoked pain); format: in vivo, mouse; settings: s.c. 10 μmol/kg
Protocol: Induction of inflammatory pain (CFA model).
Injury was induced on the right hind paw, whereas the contralateral left hind paw was used as internal control of the C57BL/6J male and female mice (Janvier, France). The inflammatory pain was induced by injection of 50 μL undiluted Complete Freund’s Adjuvant (CFA) (F5881, Sigma) unilaterally into the intraplantar surface of the right hind paw, whereas control mice were injected with the same amount of 0.9 % saline (B. Braun, Germany). All intraplantar injections were performed with an insulin needle (0.3 mL BD Micro-Fine) while the animal was under isoflurane anaesthesia (2%) for maximum 60 seconds. Von Frey was applied up to 11 days after unilateral CFA injection depending on the experiment. (For Figure 3A, the experiment was run in cohort with Figure 1A of (9)).
Induction of neuropathic pain (SNI model). […]
Post-surgical analgesia included s.c. injection of 5 mg/kg carprofen (Carprosan vet, 50 mg/mL mixed 1:25 in sterile ddH2O, Dechra, Le Vet Beheer B.V., Netherlands, Batch: 050520) right after surgery and the following day. Post-surgical care included daily severity scoring for four days, and medical clips removed. X-ray imaging (IVIS Lumina XR Apparatus, Caliper Life Sciences, Belgium) was conducted to estimate the relative femoral bone density of the ipsilateral femur at baseline and at the experimental endpoint. The test battery of the CIBP model was carried out 45 or 90 min after morphine and mPD5 administration respectively to accommodate the peak efficacy […]
Mechanically evoked pain (von Frey test).
Unless otherwise specified, von Frey occurred as described in the following. Animals were habituated to the experimental room for a minimum of 60 min before initiation of the experiment. Mechanical paw withdrawal threshold (PWT) was determined by von Frey measurements of both hind paws. Von Frey filaments ranging from 0.04 to 2 g (g = gram- […]
Filaments in ascending order were applied to the frontocentral plantar surface of the hind paws.
Mice were placed in PVC plastic boxes (11.5 cm x 14 cm) on a wire mesh and allowed minimum 20 min habituation prior of experiment initiation. Each von Frey hair was applied five times with adequate resting periods between each application and number of withdrawals recorded. The withdrawal threshold was determined as the von Frey filament eliciting at least three positive trials out of the five applications in two consecutive filaments. A positive trial was defined as sudden paw withdrawal, flinching and/or paw licking induced by the filament.
For the CIBP model, two habituation sessions were performed on separated days with mice placed in the von Frey equipment for 1-1.5 hours in the presence of the experimenter on day one and random von Frey pocking with the 0.6 g filament on day two. Von Frey monofilaments (North Coast Touch Test, North Coast Medical, Inc.) with target forces of 0.04g, 0.07g, 0.16g, […]
down method” (PWT=10Xf+kδ) starting with the 0.6 g filament. Positive response was defined as; withdrawal, shaking or grooming of paw following a 2-3 second stimulation. In case, of unclear response, stimulus was repeated after 10-15 seconds.
For the STZ model, the mechanical threshold response of the injected mice was measured with […]
injection of test compounds on day 14, mechanical threshold was measured at 1 hour, 2 hours, 4 hours and 6 hours and again on day 15. […]
Thermally evoked pain (Hargreaves test).
A baseline Hargreaves test was performed on day 0 before inflammatory pain was induced as described in section 2.13. In the Hargreaves test, the mouse was placed in a container on a glass table and left to habituate for at least 15 min. Using the Hargreaves apparatus, a heat beam from beneath was directed towards the hind paws of the mouse, and the paw withdrawal time […]
was registered automatically. The cut off was set to maximum 30 seconds to avoid skin injury and the experiment was repeated 5 times for each paw with at least five min in between […]
measurements. […]

[2] = males s.c. 10 μmol/kg, once daily for 14 days
[3] = s.c. 10 μmol/kg, once daily for 14 days

## CCCCCCCCCCCCCC(=O)N(CCOCCOCCC(=O)N[C@@H](Cc1c[nH]cn1)C(=O)N[C@@H](Cc1c[nH]c2ccccc12)C(=O)N[C@@H](CC(C)C)C(=O)N[C@@H](CCCCN)C(=O)N[C@H](C(=O)O)C(C)C)CCOCCOCCC(=O)N[C@@H](Cc1c[nH]cn1)C(=O)N[C@@H](Cc1c[nH]c2ccccc12)C(=O)N[C@@H](CC(C)C)C(=O)N[C@@H](CCCCN)C(=O)N[C@H](C(=O)O)C(C)C [mPD5, myristoyl-NPEG4-(HWLKV)2]
Naive mice; AB, individual animals
  male fertility test, AB value (Fig S8C): 28 (3×) and 27 and 26 and 28.5 and 29
Naive mice; BB, individual animals
  male fertility test, BB value (Fig S8C): 41.5 and 43 and 45 (2×) and 41 (2×) and 44
Naive mice; Day 19
  male fertility test, cumulative value by day (Fig S8B): 0
Naive mice; Day 20
  male fertility test, cumulative value by day (Fig S8B): 17
Naive mice; Day 21
  male fertility test, cumulative value by day (Fig S8B): 27
Naive mice; Day 22
  male fertility test, cumulative value by day (Fig S8B): 56
Naive mice; Day 23
  male fertility test, cumulative value by day (Fig S8B): 64
Naive mice; Day 24
  male fertility test, cumulative value by day (Fig S8B): 64
Naive mice; Day 25
  male fertility test, cumulative value by day (Fig S8B): 64
Naive mice; Day 26
  male fertility test, cumulative value by day (Fig S8B): 64
Naive mice; Day 27
  male fertility test, cumulative value by day (Fig S8B): 64
Naive mice; Day 28
  male fertility test, cumulative value by day (Fig S8B): 64
Naive mice; Day29
  male fertility test, cumulative value by day (Fig S8B): 64
Naive mice; Day 30
  male fertility test, cumulative value by day (Fig S8B): 64
Naive mice; Day 31
  male fertility test, cumulative value by day (Fig S8B): 64
Naive mice; Day 32
  male fertility test, cumulative value by day (Fig S8B): 64
Naive mice; Day 33
  male fertility test, cumulative value by day (Fig S8B): 64
Naive mice; Day 34
  male fertility test, cumulative value by day (Fig S8B): 64
Naive mice; Day 35
  male fertility test, cumulative value by day (Fig S8B): 64
Naive mice; [2]
  body weight drop per pup following birth: the same for both groups
  number of pups per litter vs vehicle: same between groups
  weight gain of females mated with treated male mice: significantly higher
Naive mice; naive mice
  Male fertility test, individual values (Fig 6E): 8 and 9 and 10
Naive mice; [3]
  sperm count of the males vs vehicle: same between groups
  sperm count, individual mice: 15062500 and 13125000 and 14250000 and 7750000 and 16000000 and 10750000
[1]
  effect on the contralateral paw (Hargreaves): No effect
[1]; 1 hour after administration
  effect on thermal hypersensitivity of the ipsilateral paw: reverted
[1]; contralateral paw, 1 h
  paw withdrawal latency (Hargreaves), individual mice: 10.93 and 8.17 and 12.67 and 7.53 and 10.3 and 14.03
[1]; contralateral paw, 5 h
  paw withdrawal latency (Hargreaves), individual mice: 15.97 and 9.47 and 12.27 and 10.97 and 14.37 and 8.3
[1]; contralateral paw, 21 h
  paw withdrawal latency (Hargreaves), individual mice: 15.23 and 12.33 and 19.73 and 9.13 and 7.03 and 15.57
[1]; ipsilateral paw, 1 h
  paw withdrawal latency (Hargreaves), individual mice: 8.4 and 16.3 and 10.87 and 15.83 and 12.17 and 11.77
[1]; ipsilateral paw, 5 h
  paw withdrawal latency (Hargreaves), individual mice: 10.8 and 9.77 (2×) and 5.13 and 6.33 and 4.77
[1]; ipsilateral paw, 21 h
  paw withdrawal latency (Hargreaves), individual mice: 6.3 and 9.13 and 2.77 and 3.3 and 2.37 and 11.83
